Test results: ChEMBL document CHEMBL1126529, “A diazine heterocycle replaces a six-membered hydrogen-bonded array in the active site of scytalone dehydratase” (Bioorg Med Chem Lett, 1993)

Columns and labels:
Scytalone dehydratase [1] = target: T1, Scytalone dehydratase (Magnaporthe oryzae (strain 70-15 / FGSC 8958) (Rice blast fungus)(Pyricularia oryzae), UniProt P56221); test: The inhibitory activity (Ki) of the deprotonated compound was measured against scytalone dehydratase at pH 9.8; parameters: species or system Pyricularia grisea
T1 sequence (P56221 whole entry): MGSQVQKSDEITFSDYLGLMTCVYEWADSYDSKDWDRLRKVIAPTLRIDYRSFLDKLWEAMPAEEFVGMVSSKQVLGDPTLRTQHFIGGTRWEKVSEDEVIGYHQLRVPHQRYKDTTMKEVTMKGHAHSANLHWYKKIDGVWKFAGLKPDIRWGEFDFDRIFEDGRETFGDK

Scytalone dehydratase [2] = target: T1, Scytalone dehydratase; test: The inhibitory activity (Ki) of the protonated compound was measured against scytalone dehydratase at pH 7.0; parameters: species or system Pyricularia grisea

Compound | Ki (Scytalone dehydratase [1]) | Ki (Scytalone dehydratase [2])
O=C(NCCCc1ccccc1)c1ccccc1O | 230 nM | 7.3 nM
c1ccc(CCCNc2ccnc3ccccc23)cc1 | 45000 nM | 88000 nM
c1ccc(CCCNc2ncnc3ccccc23)cc1 | 19 nM | 1800 nM
c1ccc(CCCNc2nccc3ccccc23)cc1 | 2300 nM | 6700 nM
